{"source": "patent US10835533B2", "about": "“1 -((3S,4R)-4-(3-fluorophenyl)-1-(2-methoxyethyl)pyrrolidin-3-yl)-3-(4-methyl-3-(2-methylpyrimidin-5-yl)-1-phenyl-1H-pyrazol-5-yl)urea as a TrkA kinase inhibitor” (Array BioPharma Inc., priority 2014, dated 2020)", "assay_in_all_cases": "KinaseProfiler kinase profiling", "format_in_all_cases": "biochemical", "conditions_in_all_cases": "10 μM, ATP near Km", "key": {"[1]": {"biological_target": "T1, AKT2 (Homo sapiens, UniProt P31751)", "T1 construct": "purchased Millipore, Inc. (KinaseProfiler service)", "method_in_brief": "(§1)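 The compound was assayed at 10 μM in duplicate, using an ATP level near the Km determined for each individual kinase. Values were reported as percent of control and averaged across the two runs.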"}, "[2]": {"biological_target": "T2, ARK5 (Homo sapiens, UniProt O60285)", "T2 construct": "purchased Millipore, Inc. (KinaseProfiler service)", "method_in_brief": "as §1"}, "[3]": {"biological_target": "T3, Axl (Homo sapiens, UniProt P30530)", "T3 construct": "purchased Millipore, Inc. (KinaseProfiler service)", "method_in_brief": "as §1"}, "[4]": {"biological_target": "T4, BTK (Homo sapiens, UniProt Q06187)", "T4 construct": "purchased Millipore, Inc. (KinaseProfiler service)", "method_in_brief": "as §1"}, "[5]": {"biological_target": "T5, BrSK2 (Homo sapiens, UniProt Q8IWQ3)", "T5 construct": "purchased Millipore, Inc. (KinaseProfiler service)", "T5 sequence (Q8IWQ3 whole entry)": "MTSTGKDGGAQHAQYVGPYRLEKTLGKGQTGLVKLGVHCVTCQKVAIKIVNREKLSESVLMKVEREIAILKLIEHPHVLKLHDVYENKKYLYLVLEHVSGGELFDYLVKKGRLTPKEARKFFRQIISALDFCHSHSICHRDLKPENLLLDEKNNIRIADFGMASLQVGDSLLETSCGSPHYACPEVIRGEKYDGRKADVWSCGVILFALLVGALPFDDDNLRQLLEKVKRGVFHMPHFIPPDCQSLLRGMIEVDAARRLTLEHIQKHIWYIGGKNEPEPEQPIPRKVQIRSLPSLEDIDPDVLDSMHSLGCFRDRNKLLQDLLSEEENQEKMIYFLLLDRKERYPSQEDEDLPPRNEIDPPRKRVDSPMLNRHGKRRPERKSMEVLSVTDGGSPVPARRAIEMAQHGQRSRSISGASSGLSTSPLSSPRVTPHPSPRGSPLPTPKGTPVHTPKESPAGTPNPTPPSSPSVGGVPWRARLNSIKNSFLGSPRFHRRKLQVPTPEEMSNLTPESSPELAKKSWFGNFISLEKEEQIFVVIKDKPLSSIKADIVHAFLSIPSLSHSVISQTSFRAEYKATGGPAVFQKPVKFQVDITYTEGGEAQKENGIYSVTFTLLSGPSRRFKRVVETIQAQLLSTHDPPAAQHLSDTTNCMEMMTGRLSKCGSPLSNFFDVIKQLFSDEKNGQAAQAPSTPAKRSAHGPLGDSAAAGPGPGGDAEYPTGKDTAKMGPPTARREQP", "method_in_brief": "as §1"}, "[6]": {"biological_target": "T6, CAMK2d (Homo sapiens, UniProt Q13557)", "T6 construct": "purchased Millipore, Inc. (KinaseProfiler service)", "method_in_brief": "as §1"}, "[7]": {"biological_target": "T7, CAMK4 (Homo sapiens, UniProt Q16566)", "T7 construct": "purchased Millipore, Inc. (KinaseProfiler service)", "method_in_brief": "as §1"}, "[8]": {"biological_target": "T8, CDK6/cyclinD3 (Homo sapiens, UniProt Q00534)", "T8 construct": "purchased Millipore, Inc. (KinaseProfiler service)", "method_in_brief": "as §1"}, "[9]": {"tested_on": "CK1_y", "method_in_brief": "as §1"}, "[10]": {"biological_target": "T9, CK1delta (Homo sapiens, UniProt P48730)", "T9 construct": "purchased Millipore, Inc. (KinaseProfiler service)", "method_in_brief": "as §1"}, "[11]": {"biological_target": "T10, CK1gamma1 (Homo sapiens, UniProt Q9HCP0)", "T10 construct": "purchased Millipore, Inc. (KinaseProfiler service)", "method_in_brief": "as §1"}, "[12]": {"biological_target": "T11, CSK (Homo sapiens, UniProt P41240)", "T11 construct": "purchased Millipore, Inc. (KinaseProfiler service)", "method_in_brief": "as §1"}, "[13]": {"biological_target": "T12, DCAMKL2 (Homo sapiens, UniProt Q8N568)", "T12 construct": "purchased Millipore, Inc. (KinaseProfiler service)", "method_in_brief": "as §1"}, "[14]": {"biological_target": "T13, EphA7 (Homo sapiens, UniProt Q15375)", "T13 construct": "purchased Millipore, Inc. (KinaseProfiler service)", "method_in_brief": "as §1"}, "[15]": {"biological_target": "T14, EphB4 (Homo sapiens, UniProt P54760)", "T14 construct": "purchased Millipore, Inc. (KinaseProfiler service)", "method_in_brief": "as §1"}, "[16]": {"biological_target": "T15, FGFR3 (Homo sapiens, UniProt P22607)", "T15 construct": "purchased Millipore, Inc. (KinaseProfiler service)", "method_in_brief": "as §1"}, "[17]": {"biological_target": "T16, Fer (Homo sapiens, UniProt P16591)", "T16 construct": "purchased Millipore, Inc. (KinaseProfiler service)", "T16 sequence (P16591 whole entry)": "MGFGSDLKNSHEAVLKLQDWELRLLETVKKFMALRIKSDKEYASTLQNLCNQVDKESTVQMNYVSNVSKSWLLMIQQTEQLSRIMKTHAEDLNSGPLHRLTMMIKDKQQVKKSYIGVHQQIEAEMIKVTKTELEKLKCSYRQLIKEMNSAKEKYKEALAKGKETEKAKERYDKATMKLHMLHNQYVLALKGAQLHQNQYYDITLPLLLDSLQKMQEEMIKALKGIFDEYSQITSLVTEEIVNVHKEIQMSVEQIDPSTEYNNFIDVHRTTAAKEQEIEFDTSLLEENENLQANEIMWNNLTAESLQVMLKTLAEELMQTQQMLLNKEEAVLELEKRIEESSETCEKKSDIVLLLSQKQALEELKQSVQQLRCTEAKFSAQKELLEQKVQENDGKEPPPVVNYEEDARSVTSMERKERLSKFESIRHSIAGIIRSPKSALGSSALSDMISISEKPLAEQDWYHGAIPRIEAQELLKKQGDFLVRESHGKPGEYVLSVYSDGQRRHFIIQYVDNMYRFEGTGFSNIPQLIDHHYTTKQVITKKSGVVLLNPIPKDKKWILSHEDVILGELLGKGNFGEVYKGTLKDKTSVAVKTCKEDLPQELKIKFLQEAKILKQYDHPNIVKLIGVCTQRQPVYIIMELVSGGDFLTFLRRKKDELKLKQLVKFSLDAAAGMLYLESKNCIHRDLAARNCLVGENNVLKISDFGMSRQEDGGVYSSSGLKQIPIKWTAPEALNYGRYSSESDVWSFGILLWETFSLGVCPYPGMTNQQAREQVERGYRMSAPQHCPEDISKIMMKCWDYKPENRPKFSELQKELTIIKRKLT", "method_in_brief": "as §1"}, "[18]": {"biological_target": "T17, Fes (Homo sapiens, UniProt P07332)", "T17 construct": "purchased Millipore, Inc. (KinaseProfiler service)", "T17 sequence (P07332 whole entry)": "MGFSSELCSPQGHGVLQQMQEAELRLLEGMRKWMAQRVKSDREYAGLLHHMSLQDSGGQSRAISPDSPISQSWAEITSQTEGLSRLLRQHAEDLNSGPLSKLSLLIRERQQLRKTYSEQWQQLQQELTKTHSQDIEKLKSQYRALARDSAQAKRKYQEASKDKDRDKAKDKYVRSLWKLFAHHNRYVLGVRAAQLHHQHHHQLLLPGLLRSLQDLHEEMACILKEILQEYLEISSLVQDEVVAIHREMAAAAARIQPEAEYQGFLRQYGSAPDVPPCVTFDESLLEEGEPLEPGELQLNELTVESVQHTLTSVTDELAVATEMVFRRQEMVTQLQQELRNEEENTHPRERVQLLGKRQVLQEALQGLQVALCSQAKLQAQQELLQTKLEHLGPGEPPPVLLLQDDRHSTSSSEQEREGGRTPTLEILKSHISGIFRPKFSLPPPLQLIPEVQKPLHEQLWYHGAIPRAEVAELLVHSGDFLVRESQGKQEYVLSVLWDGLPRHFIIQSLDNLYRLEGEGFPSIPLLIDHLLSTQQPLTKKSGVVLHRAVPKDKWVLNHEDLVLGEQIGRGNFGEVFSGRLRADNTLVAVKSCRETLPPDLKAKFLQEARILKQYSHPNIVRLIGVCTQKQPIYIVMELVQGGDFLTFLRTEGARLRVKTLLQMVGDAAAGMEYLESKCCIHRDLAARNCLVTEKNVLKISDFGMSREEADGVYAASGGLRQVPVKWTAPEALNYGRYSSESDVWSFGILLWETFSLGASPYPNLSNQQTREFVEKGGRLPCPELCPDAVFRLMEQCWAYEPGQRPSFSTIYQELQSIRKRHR", "method_in_brief": "as §1"}, "[19]": {"biological_target": "T18, GRK6 (Homo sapiens, UniProt P43250)", "T18 construct": "purchased Millipore, Inc. (KinaseProfiler service)", "T18 sequence (P43250 whole entry)": "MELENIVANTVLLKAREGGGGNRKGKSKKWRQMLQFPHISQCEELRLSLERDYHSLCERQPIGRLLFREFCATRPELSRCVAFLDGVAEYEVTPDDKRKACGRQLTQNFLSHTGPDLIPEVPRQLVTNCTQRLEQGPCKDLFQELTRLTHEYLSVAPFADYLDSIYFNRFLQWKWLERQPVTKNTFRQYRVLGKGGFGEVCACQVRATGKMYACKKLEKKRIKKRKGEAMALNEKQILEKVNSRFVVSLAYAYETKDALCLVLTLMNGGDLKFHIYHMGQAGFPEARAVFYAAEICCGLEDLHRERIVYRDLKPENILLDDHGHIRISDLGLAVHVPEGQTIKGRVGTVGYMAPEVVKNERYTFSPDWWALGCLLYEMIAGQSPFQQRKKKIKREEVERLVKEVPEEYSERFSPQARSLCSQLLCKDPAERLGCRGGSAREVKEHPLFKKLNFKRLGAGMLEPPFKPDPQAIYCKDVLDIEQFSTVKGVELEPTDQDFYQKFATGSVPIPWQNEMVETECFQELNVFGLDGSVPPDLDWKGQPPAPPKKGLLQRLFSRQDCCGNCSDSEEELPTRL", "method_in_brief": "as §1"}, "[20]": {"biological_target": "T19, Haspin (Homo sapiens, UniProt Q8TF76)", "T19 construct": "purchased Millipore, Inc. (KinaseProfiler service)", "method_in_brief": "as §1"}, "[21]": {"biological_target": "T20, JNK2alpha2 (Homo sapiens, UniProt P45984)", "T20 construct": "purchased Millipore, Inc. (KinaseProfiler service)", "method_in_brief": "as §1"}, "[22]": {"biological_target": "T21, MAPKAP-K2 (Homo sapiens, UniProt P49137)", "T21 construct": "purchased Millipore, Inc. (KinaseProfiler service)", "method_in_brief": "as §1"}, "[23]": {"biological_target": "T22, MKK4_m (Mus musculus, UniProt P47809)", "T22 construct": "purchased Millipore, Inc. (KinaseProfiler service)", "method_in_brief": "as §1"}, "[24]": {"biological_target": "T23, MLK1 (Homo sapiens, UniProt P80192)", "T23 construct": "purchased Millipore, Inc. (KinaseProfiler service)", "T23 sequence (P80192 whole entry)": "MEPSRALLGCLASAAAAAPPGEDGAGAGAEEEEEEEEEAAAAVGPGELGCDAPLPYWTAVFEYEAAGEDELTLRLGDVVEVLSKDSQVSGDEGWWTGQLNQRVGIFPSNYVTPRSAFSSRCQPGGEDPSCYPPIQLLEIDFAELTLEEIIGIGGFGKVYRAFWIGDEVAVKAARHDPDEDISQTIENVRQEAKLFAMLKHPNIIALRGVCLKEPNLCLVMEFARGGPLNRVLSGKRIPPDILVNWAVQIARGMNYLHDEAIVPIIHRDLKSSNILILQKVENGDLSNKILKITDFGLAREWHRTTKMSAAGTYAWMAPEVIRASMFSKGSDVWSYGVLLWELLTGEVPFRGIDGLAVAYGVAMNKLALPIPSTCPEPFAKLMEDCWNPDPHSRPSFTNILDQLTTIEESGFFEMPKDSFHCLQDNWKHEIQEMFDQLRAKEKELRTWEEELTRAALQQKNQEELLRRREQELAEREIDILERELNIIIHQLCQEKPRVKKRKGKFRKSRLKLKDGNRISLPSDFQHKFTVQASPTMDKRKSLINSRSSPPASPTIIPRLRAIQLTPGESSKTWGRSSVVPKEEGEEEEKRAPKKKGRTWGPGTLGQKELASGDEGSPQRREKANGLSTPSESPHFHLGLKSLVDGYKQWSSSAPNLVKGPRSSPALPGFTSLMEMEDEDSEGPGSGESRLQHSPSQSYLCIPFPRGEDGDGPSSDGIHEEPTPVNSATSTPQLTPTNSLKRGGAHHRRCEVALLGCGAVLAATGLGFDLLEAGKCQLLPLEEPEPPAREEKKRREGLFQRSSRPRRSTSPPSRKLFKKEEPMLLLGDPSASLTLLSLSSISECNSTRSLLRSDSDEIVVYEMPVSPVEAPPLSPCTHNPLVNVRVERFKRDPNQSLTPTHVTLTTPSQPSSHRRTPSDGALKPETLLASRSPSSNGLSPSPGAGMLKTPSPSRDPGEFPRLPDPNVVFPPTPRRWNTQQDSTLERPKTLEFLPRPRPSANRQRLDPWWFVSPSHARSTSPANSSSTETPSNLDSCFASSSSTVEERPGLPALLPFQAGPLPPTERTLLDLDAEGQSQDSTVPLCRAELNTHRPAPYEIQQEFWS", "method_in_brief": "as §1"}, "[25]": {"biological_target": "T24, MSK2 (Homo sapiens, UniProt O75676)", "T24 construct": "purchased Millipore, Inc. (KinaseProfiler service)", "method_in_brief": "as §1"}, "[26]": {"biological_target": "T25, PDGFRbeta (Homo sapiens, UniProt P09619)", "T25 construct": "purchased Millipore, Inc. (KinaseProfiler service)", "method_in_brief": "as §1"}, "[27]": {"biological_target": "T26, PKCdelta (Homo sapiens, UniProt Q05655)", "T26 construct": "purchased Millipore, Inc. (KinaseProfiler service)", "method_in_brief": "as §1"}, "[28]": {"biological_target": "T27, PKCepsilon (Homo sapiens, UniProt Q02156)", "T27 construct": "purchased Millipore, Inc. (KinaseProfiler service)", "method_in_brief": "as §1"}, "[29]": {"biological_target": "T28, PKCgamma (Homo sapiens, UniProt P05129)", "T28 construct": "purchased Millipore, Inc. (KinaseProfiler service)", "method_in_brief": "as §1"}, "[30]": {"biological_target": "T29, PTK5 (Homo sapiens, UniProt P42685)", "T29 construct": "purchased Millipore, Inc. (KinaseProfiler service)", "method_in_brief": "as §1"}, "[31]": {"biological_target": "T30, PhKgamma2 (Homo sapiens, UniProt P15735)", "T30 construct": "purchased Millipore, Inc. (KinaseProfiler service)", "method_in_brief": "as §1"}, "[32]": {"biological_target": "T31, Pim-2 (Homo sapiens, UniProt Q9P1W9)", "T31 construct": "purchased Millipore, Inc. (KinaseProfiler service)", "method_in_brief": "as §1"}, "[33]": {"biological_target": "T32, Pim-3 (Homo sapiens, UniProt Q86V86)", "T32 construct": "purchased Millipore, Inc. (KinaseProfiler service)", "method_in_brief": "as §1"}, "[34]": {"biological_target": "T33, Plk3 (Homo sapiens, UniProt Q9H4B4)", "T33 construct": "purchased Millipore, Inc. (KinaseProfiler service)", "method_in_brief": "as §1"}, "[35]": {"biological_target": "T34, Rsk3 (Homo sapiens, UniProt Q15349)", "T34 construct": "purchased Millipore, Inc. (KinaseProfiler service)", "method_in_brief": "as §1"}, "[36]": {"biological_target": "T35, Rsk4 (Homo sapiens, UniProt Q9UK32)", "T35 construct": "purchased Millipore, Inc. (KinaseProfiler service)", "method_in_brief": "as §1"}, "[37]": {"biological_target": "T36, STK33 (Homo sapiens, UniProt Q9BYT3)", "T36 construct": "purchased Millipore, Inc. (KinaseProfiler service)", "T36 sequence (Q9BYT3 whole entry)": "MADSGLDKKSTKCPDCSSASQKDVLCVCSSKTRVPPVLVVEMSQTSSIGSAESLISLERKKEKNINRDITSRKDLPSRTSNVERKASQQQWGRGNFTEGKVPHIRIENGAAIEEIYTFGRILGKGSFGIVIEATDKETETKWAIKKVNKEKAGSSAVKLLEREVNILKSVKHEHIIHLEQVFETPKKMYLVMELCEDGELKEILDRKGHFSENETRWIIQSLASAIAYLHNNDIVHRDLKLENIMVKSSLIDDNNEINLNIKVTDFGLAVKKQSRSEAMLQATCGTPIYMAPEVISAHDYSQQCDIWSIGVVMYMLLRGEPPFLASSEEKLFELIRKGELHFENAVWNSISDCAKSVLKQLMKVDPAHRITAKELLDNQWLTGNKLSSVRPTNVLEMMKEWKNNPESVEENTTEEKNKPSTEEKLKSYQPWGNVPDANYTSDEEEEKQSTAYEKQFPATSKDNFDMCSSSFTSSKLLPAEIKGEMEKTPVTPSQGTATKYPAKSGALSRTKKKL", "method_in_brief": "as §1"}, "[38]": {"biological_target": "T37, TLK2 (Homo sapiens, UniProt Q86UE8)", "T37 construct": "purchased Millipore, Inc. (KinaseProfiler service)", "method_in_brief": "as §1"}, "[39]": {"biological_target": "T38, TSSK2 (Homo sapiens, UniProt Q96PF2)", "T38 construct": "purchased Millipore, Inc. (KinaseProfiler service)", "method_in_brief": "as §1"}, "[40]": {"biological_target": "T39, p38alpha (Homo sapiens, UniProt Q16539)", "T39 construct": "purchased Millipore, Inc. (KinaseProfiler service)", "T39 sequence (Q16539 whole entry)": "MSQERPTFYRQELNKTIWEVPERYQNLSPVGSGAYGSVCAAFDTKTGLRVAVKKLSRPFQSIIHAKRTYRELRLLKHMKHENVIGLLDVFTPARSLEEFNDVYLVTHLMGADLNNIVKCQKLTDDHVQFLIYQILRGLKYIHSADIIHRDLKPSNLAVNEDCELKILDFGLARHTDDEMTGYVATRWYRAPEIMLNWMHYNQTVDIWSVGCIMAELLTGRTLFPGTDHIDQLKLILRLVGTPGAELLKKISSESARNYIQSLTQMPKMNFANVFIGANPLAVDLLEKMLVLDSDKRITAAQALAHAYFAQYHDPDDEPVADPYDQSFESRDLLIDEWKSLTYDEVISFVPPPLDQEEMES", "method_in_brief": "as §1"}, "[41]": {"biological_target": "T40, p38gamma (Homo sapiens, UniProt P53778)", "T40 construct": "purchased Millipore, Inc. (KinaseProfiler service)", "method_in_brief": "as §1"}}, "data": [{"compound": "COCCN1C[C@@H](NC(=O)Nc2c(C)c(-c3cnc(C)nc3)nn2-c2ccccc2)[C@H](c2cccc(F)c2)C1", "note": "[Compound 1, 1-((3S,4R)-4-(3-fluorophenyl)-1-(2-methoxyethyl)pyrrolidin-3-yl)-3-(4-methyl-3-(2-methylpyrimidin-5-yl)-1-phenyl-1H-pyrazol-5-yl)urea]", "values": [{"measurement": "Avg POC", "setting": "[1]", "value": 104.5, "unit": "POC"}, {"measurement": "Avg POC", "setting": "[2]", "value": 104.5, "unit": "POC"}, {"measurement": "Avg POC", "setting": "[3]", "value": 115.5, "unit": "POC"}, {"measurement": "Avg POC", "setting": "[4]", "value": 114, "unit": "POC"}, {"measurement": "Avg POC", "setting": "[5]", "value": 104, "unit": "POC"}, {"measurement": "Avg POC", "setting": "[6]", "value": 97.5, "unit": "POC"}, {"measurement": "Avg POC", "setting": "[7]", "value": 100, "unit": "POC"}, {"measurement": "Avg POC", "setting": "[8]", "value": 99.5, "unit": "POC"}, {"measurement": "Avg POC", "setting": "[9]", "value": 91.5, "unit": "POC"}, {"measurement": "Avg POC", "setting": "[10]", "value": 104, "unit": "POC"}, {"measurement": "Avg POC", "setting": "[11]", "value": 78.5, "unit": "POC"}, {"measurement": "Avg POC", "setting": "[12]", "value": 100, "unit": "POC"}, {"measurement": "Avg POC", "setting": "[13]", "value": 135, "unit": "POC"}, {"measurement": "Avg POC", "setting": "[14]", "value": 109, "unit": "POC"}, {"measurement": "Avg POC", "setting": "[15]", "value": 102, "unit": "POC"}, {"measurement": "Avg POC", "setting": "[16]", "value": 108, "unit": "POC"}, {"measurement": "Avg POC", "setting": "[17]", "value": 103.5, "unit": "POC"}, {"measurement": "Avg POC", "setting": "[18]", "value": 102.5, "unit": "POC"}, {"measurement": "Avg POC", "setting": "[19]", "value": 98, "unit": "POC"}, {"measurement": "Avg POC", "setting": "[20]", "value": 96.5, "unit": "POC"}, {"measurement": "Avg POC", "setting": "[21]", "value": 98.5, "unit": "POC"}, {"measurement": "Avg POC", "setting": "[22]", "value": 115, "unit": "POC"}, {"measurement": "Avg POC", "setting": "[23]", "value": 125, "unit": "POC"}, {"measurement": "Avg POC", "setting": "[24]", "value": 109.5, "unit": "POC"}, {"measurement": "Avg POC", "setting": "[25]", "value": 116.5, "unit": "POC"}, {"measurement": "Avg POC", "setting": "[26]", "value": 96, "unit": "POC"}, {"measurement": "Avg POC", "setting": "[27]", "value": 102, "unit": "POC"}, {"measurement": "Avg POC", "setting": "[28]", "value": 101.5, "unit": "POC"}, {"measurement": "Avg POC", "setting": "[29]", "value": 98, "unit": "POC"}, {"measurement": "Avg POC", "setting": "[30]", "value": 105, "unit": "POC"}, {"measurement": "Avg POC", "setting": "[31]", "value": 108, "unit": "POC"}, {"measurement": "Avg POC", "setting": "[32]", "value": 117.5, "unit": "POC"}, {"measurement": "Avg POC", "setting": "[33]", "value": 106.5, "unit": "POC"}, {"measurement": "Avg POC", "setting": "[34]", "value": 100.5, "unit": "POC"}, {"measurement": "Avg POC", "setting": "[35]", "value": 107.5, "unit": "POC"}, {"measurement": "Avg POC", "setting": "[36]", "value": 105.5, "unit": "POC"}, {"measurement": "Avg POC", "setting": "[37]", "value": 101, "unit": "POC"}, {"measurement": "Avg POC", "setting": "[38]", "value": 101.5, "unit": "POC"}, {"measurement": "Avg POC", "setting": "[39]", "value": 108.5, "unit": "POC"}, {"measurement": "Avg POC", "setting": "[40]", "value": 107.5, "unit": "POC"}, {"measurement": "Avg POC", "setting": "[41]", "value": 114.5, "unit": "POC"}]}]}
